Reference: PubChem BioAssay AID1745844 (Carcinogenic Potency Database (CPDB), 2022)
Activity calls are given as the source filed them. How the calls were made is not given here.

Tested on: rodent lifetime carcinogenesis bioassay, tumor incidence TD50
Assay: carcinogenic potency in animals, long-term in vivo studies, CPDB compilation (AID 1745844)
Settings: by gavage

Compound	TD50 (mouse, strain Swiss albino, females, site: any site (literature study), lesion: malignant tumor, dosed 95 weeks, study length 95 weeks)	TD50 (mouse, strain Swiss albino, females, site: mammary gland, lesion: adenocarcinoma, dosed 95 weeks, study length 95 weeks)	TD50 (mouse, strain Swiss albino, males, site: any site (literature study), lesion: malignant tumor, dosed 95 weeks, study length 95 weeks)	TD50 (mouse, strain Swiss albino, males, site: lung, lesion: adenocarcinoma, dosed 95 weeks, study length 95 weeks)	TD50 (mouse, strain B6C3F1, females, site: any site (literature study), lesion: several types, types named in the paper, dosed 103 weeks, study length 105 weeks)	TD50 (mouse, strain B6C3F1, females, site: liver, lesion: hepatocellular adenoma + hepatocellular carcinoma + neoplastic nodule, dosed 103 weeks, study length 105 weeks)	TD50 (mouse, strain B6C3F1, females, site: lung, lesion: alveolar/bronchiolar adenoma + alveolar/bronchiolar carcinoma, dosed 103 weeks, study length 105 weeks)	TD50 (mouse, strain B6C3F1, males, site: any site (literature study), lesion: several types, types named in the paper, dosed 103 weeks, study length 105 weeks)	TD50 (mouse, strain B6C3F1, males, site: liver, lesion: hepatocellular adenoma + hepatocellular carcinoma + neoplastic nodule, dosed 103 weeks, study length 105 weeks)	TD50 (mouse, strain B6C3F1, males, site: lung, lesion: alveolar/bronchiolar adenoma + alveolar/bronchiolar carcinoma, dosed 103 weeks, study length 105 weeks)	TD50 (rat, strain Fischer 344, females, site: liver, lesion: hepatocellular adenoma + hepatocellular carcinoma + neoplastic nodule, dosed 103 weeks, study length 104 weeks)	TD50 (rat, strain Fischer 344, females, site: parathyroid + thyroid gland + thyroid follicle, lesion: adenoma, NOS + follicular-cell carcinoma + cystadenoma, NOS, dosed 103 weeks, study length 104 weeks)	TD50 (rat, strain Fischer 344, males, site: any site (literature study), lesion: several types, types named in the paper, dosed 103 weeks, study length 104 weeks)	TD50 (rat, strain Fischer 344, males, site: liver, lesion: hepatocellular adenoma + hepatocellular carcinoma + neoplastic nodule, dosed 103 weeks, study length 104 weeks)	TD50 (rat, strain Fischer 344, males, site: liver, lesion: neoplastic nodule, dosed 103 weeks, study length 104 weeks)
C[C@H]([C@H](O)CCC(C)(C)O)[C@H]1CC[C@@]2(O)C3=CC(=O)[C@@H]4C[C@@H](O)[C@@H](O)C[C@]4(C)[C@H]3CC[C@]12C	0.0264 mg/kg/day	0.0264 mg/kg/day	0.0558 mg/kg/day	0.0558 mg/kg/day	–	–	–	–	–	–	–	–	–	–	–
Clc1ccccc1	–	–	–	–	373 mg/kg/day (inactive)	235 mg/kg/day	623 mg/kg/day	60.1 mg/kg/day (inactive)	382 mg/kg/day	190 mg/kg/day	867 mg/kg/day	520 mg/kg/day (inactive)	190 mg/kg/day	328 mg/kg/day	247 mg/kg/day
